Experimental data published in patent US5202310A, “Cyclosporine metabolites” (priority 1990, dated 1993).
Values joined by “and” are separate entries in the source; they are usually repeats but may differ in a detail not shown here. Equal entries are not always repeated. Where two headings read alike, the source gives them in different places.

Legend:
[1] = test system: Renal glomerular mesangial cells; conditions: CsA: to 1 ng/ml, CM effects only at concentrations greater than 1 and 5 μg/ml
[2] = CM extracted from bile of liver transplant recipients, relative area by UV spectroscopy
LLC-PK1 cells [3] = conditions: renal epithelial cell line LLC-PK1; 19 h + 5 h incubation
IL2 receptors = test: Effect on IL2 receptor activity (method of Freed); assay type: cell-based; conditions: compared with cyclosporine A
Text: (§1) The effect of CM Peak H on IL1, IL2 and IL2 receptor activity was studied using the method as described in Freed, B. M., Transplantation 43:123, 1987.

[4] = for Amount of cyclosporine per liter of bile as determined with internal standard: 100 ml bile extracted, analytical gradient HPLC with CsA internal standard; for Mean % of total concentration of cyclosporine (mean value, n = 5): bile of five CsA treated liver transplant individuals
IL2 = test: Effect on IL2 (method of Freed); assay type: cell-based; conditions: compared with cyclosporine A
Text: as §1

phospholipase A2 = conditions: at concentrations of 1 mg/ml or greater
L2 cells [5] = conditions: murine lung cell line L2
LLC-PK1 cells [6] = conditions: renal epithelial cell line LLC-PK1
L2 cells [7] = conditions: murine lung cell line L2; remark: listed apart in the source
L2 cells [8] = conditions: murine lung cell line L2; remark: listed apart in the source
LLC-PK1 cells [9] = conditions: renal epithelial cell line LLC-PK1; CsA: to 1 ng/ml
[10] = test system: Renal glomerular mesangial cells; conditions: CM effects only at concentrations greater than 1 and 5 μg/ml
IL1 = test: Effect on IL1 (method of Freed); assay type: cell-based; conditions: compared with cyclosporine A
Text: as §1

[11] = test system: Renal glomerular mesangial cells; conditions: CM effects only at concentrations greater than 1 and 5 μg/ml; remark: listed apart in the source
lymphocyte proliferation = conditions: Freed 1987; OL-17 followed by OL-1 and OL-21; cited from earlier work
IL2 production = conditions: Freed 1987; OL-17 followed by OL-1 and OL-21; cited from earlier work
rat = conditions: Ryffel 1988; cited from earlier work

C/C=C/C[C@@H](C)[C@@H](O)[C@H]1C(=O)N[C@@H](CC)C(=O)N(C)CC(=O)N(C)[C@@H](CC(C)C)C(=O)N[C@@H](C(C)C)C(=O)N(C)[C@@H](CC(C)C)C(=O)N[C@@H](C)C(=O)N[C@H](C)C(=O)N(C)[C@@H](CC(C)(C)O)C(=O)N[C@@H](CC(C)C)C(=O)N(C)[C@@H](C(C)C)C(=O)N1C [CM Peak H]
Inhibition of protein synthesis [1]: some inhibitory effects
Inhibition of protein synthesis ([1]; listed as Metabolite H): least inhibitory effects
Percentage of total CM ([2]; listed as H): 6.3%
Percentage of total CM ([2]; listed as peak H): 6.33%
Inhibition of DNA synthesis (LLC-PK1 cells [3]): no inhibitory effects
Inhibiting formation of, and action of IL2 receptors (IL2 receptors): as effective as cyclosporine A
Amount of cyclosporine per liter of bile as determined with internal standard [4]: 536 µg/L
Amount in RIA profile of bile ([4]; bile, gradient HPLC/polyclonal antibody RIA): above 250 μg/L CsA equivalents
Inhibiting formation of, and action of IL2 (IL2): as effective as cyclosporine A
Inhibition of phospholipase A2 activity (phospholipase A2): no such inhibitory activity
Inhibition of RNA synthesis (L2 cells [5]): no inhibitory effects
Inhibition of RNA synthesis (LLC-PK1 cells [6]): no inhibitory effects
Inhibition of protein synthesis (L2 cells [7]): no inhibitory effects
Inhibition of DNA synthesis (L2 cells [8]): no inhibitory effects
Inhibition of protein synthesis (LLC-PK1 cells [9]): no inhibitory effects
Inhibition of DNA synthesis [10]: some inhibitory effects
Inhibition of DNA synthesis ([10]; listed as Metabolite H): least inhibitory effects
Inhibiting formation of, and action of IL1 (IL1): as effective as cyclosporine A
Inhibition of RNA synthesis [11]: some inhibitory effects
Inhibition of RNA synthesis ([11]; listed as Metabolite H): least inhibitory effects

C/C=C/C[C@@H](C)[C@@H](O)[C@H]1C(=O)N[C@@H](CC)C(=O)N(C)CC(=O)N(C)[C@@H](CC(C)C)C(=O)N[C@@H](C(C)C)C(=O)N(C)[C@@H](CC(C)C)C(=O)N[C@@H](C)C(=O)N[C@H](C)C(=O)N(C)[C@@H](CC(C)(C)O)C(=O)N(C)[C@@H](CC(C)C)C(=O)N(C)[C@@H](C(C)C)C(=O)N1C [OL-1, 9-hydroxy cyclosporine A]
Ability to inhibit lymphocyte proliferation in a mixed lymphocyte reaction, compared to CsA (lymphocyte proliferation): comparable effects
Inhibition of protein synthesis [1]: some inhibitory effects
Inhibition of DNA synthesis (LLC-PK1 cells [3]): no inhibitory effects
Amount of cyclosporine per liter of bile as determined with internal standard [4]: 364 µg/L
Ability to inhibit IL2 production, compared to CsA (IL2 production): comparable effects
Inhibition of RNA synthesis (L2 cells [5]): no inhibitory effects
Inhibition of RNA synthesis (LLC-PK1 cells [6]): no inhibitory effects
Inhibition of protein synthesis (L2 cells [7]): no inhibitory effects
Inhibition of DNA synthesis (L2 cells [8]): no inhibitory effects
Inhibition of protein synthesis (LLC-PK1 cells [9]): no inhibitory effects
Inhibition of DNA synthesis [10]: some inhibitory effects
Inhibition of RNA synthesis [11]: some inhibitory effects

CC[C@@H]1NC(=O)[C@H]([C@H](O)[C@H](C)C/C=C/CO)N(C)C(=O)[C@H](C(C)C)N(C)C(=O)[C@H](CC(C)C)N(C)C(=O)[C@H](CC(C)(C)O)N(C)C(=O)[C@@H](C)NC(=O)[C@H](C)NC(=O)[C@H](CC(C)C)N(C)C(=O)[C@H](C(C)C)NC(=O)[C@H](CC(C)C)N(C)C(=O)CN(C)C1=O [OL-8, 1,9 dihydroxy cyclosporine A]
Inhibition of protein synthesis [1]: some inhibitory effects
Inhibition of DNA synthesis (LLC-PK1 cells [3]): no inhibitory effects
Amount of cyclosporine per liter of bile as determined with internal standard [4]: 640 µg/L
Mean % of total concentration of cyclosporine (mean value, n = 5) [4]: 10.86 ± 2.4% and 11%
Inhibition of RNA synthesis (L2 cells [5]): no inhibitory effects
Inhibition of RNA synthesis (LLC-PK1 cells [6]): no inhibitory effects
Inhibition of protein synthesis (L2 cells [7]): no inhibitory effects
Inhibition of DNA synthesis (L2 cells [8]): no inhibitory effects
Inhibition of protein synthesis (LLC-PK1 cells [9]): no inhibitory effects
Inhibition of DNA synthesis [10]: some inhibitory effects
Inhibition of RNA synthesis [11]: some inhibitory effects

CC[C@@H]1NC(=O)[C@H]([C@H](O)[C@H](C)C/C=C/CO)N(C)C(=O)[C@H](C(C)C)N(C)C(=O)[C@H](CC(C)C)N(C)C(=O)[C@H](CC(C)C)N(C)C(=O)[C@@H](C)NC(=O)[C@H](C)NC(=O)[C@H](CC(C)C)N(C)C(=O)[C@H](C(C)C)NC(=O)[C@H](CC(C)C)N(C)C(=O)CN(C)C1=O [OL-17, 1-hydroxy cyclosporine A]
Ability to inhibit lymphocyte proliferation in a mixed lymphocyte reaction, compared to CsA (lymphocyte proliferation): comparable effects
Inhibition of protein synthesis [1]: some inhibitory effects
Inhibition of DNA synthesis (LLC-PK1 cells [3]): no inhibitory effects
Amount of cyclosporine per liter of bile as determined with internal standard [4]: 853 µg/L
Mean % of total concentration of cyclosporine (mean value, n = 5) [4]: 16.00 ± 4.4% and 16%
Toxicity in vivo (rat): not toxic
Ability to inhibit IL2 production, compared to CsA (IL2 production): comparable effects
Inhibition of RNA synthesis (L2 cells [5]): no inhibitory effects
Inhibition of RNA synthesis (LLC-PK1 cells [6]): no inhibitory effects
Inhibition of protein synthesis (L2 cells [7]): no inhibitory effects
Inhibition of DNA synthesis (L2 cells [8]): no inhibitory effects
Inhibition of protein synthesis (LLC-PK1 cells [9]): no inhibitory effects
Inhibition of DNA synthesis [10]: some inhibitory effects
Inhibition of RNA synthesis [11]: some inhibitory effects
